The subject of one assay is T-cells. Briefly: Insertion (depoting) of TLR2 ligands into cell membranes and intracellular localisation. In kind it is cell-based, murine. The protocol:
A) Structure of synthesized lipo-ligand, which are diacyl 18-carbon tails conjugated to: unmethylated CpG oligonucleotide ([…]) (SEQ ID NO: 1), or a poly(ethylene) glycol (PEG) linker plus a melanoma antigen, GP10025-33 (KVPRNQDWL) (SEQ ID NO: 2). B) Schematic of lipo-ligand depoting into cell membrane surface. C-D, CD4+ and CD8+ T-cells are identified by flow cytometry and median fluorescence intensity (MFI) of labeled ligand is determined on each cell subset as a function of time and ligand concentration. C) Fluoroscein (FAM)-labeled lipo-CpG, a TLR9 ligand, depoted into murine splenic immune cells. D) Pam2CSK4, a TLR2 ligand, depoted into murine splenic immune cells. E) MFI of lipo-GP100 is determined by flow cytometry as a function of cell density and depot volume. F-G, Isolated T-cells are depoted by varying depot time or ligand concentration, and quantified as average number of ligand per T-cell by enzyme-linked immunosorbant assay (ELISA) F) Lipo-CpG depoted into isolated T-cells. G) Pam2CSK4 and Pam3CSK4, another TLR2 ligand, respectively depoted into isolated T-cells. H) Average number of each respective ligand per splenic immune cell after 1 hour depot. n=3-5 independent experiments. Data depict m±s.d.
A) Splenic immune cells were depoted with 10 μg/ml of Pam2CSK4 for 1 h. Depoted cells were resting for up to 1 h versus nondepoted cells with addition of 100 ng/ml of soluble Pam2CSK4. Phosphorylated p38 was measured compared to negative controls by western blotting. n=2 independent experiments. Data depict m±s.d. B) Isolated T-cells were depoted with TLR2 ligand and MFI of activation markers, MHCII and CD69, on bystander B-cells were measured after 2-day culture by flow cytometry and normalized to unstimulated B-cells (fold MFI). n=5-6 independent experiments, one-way ANOVA with Kruskal-Wallis test. Data depict m±s.d. C) Splenocytes were cultured in 2 μg/ml of Concanavalin A and 10 ng/ml of IL-7 for 2 days, and isolated T-cells were then TLR2 ligand-depoted for 1 hour. […]

A further assay concerns bystander B cells (TLR2). In words: TLR2 ligand-depoted T cells co-cultured with bystander B cells, activation markers by flow cytometry. In kind it is cell-based, mouse. The protocol: A) Splenic immune cells were depoted with 10 μg/ml of Pam2CSK4 for 1 h. Depoted cells were resting for up to 1 h versus nondepoted cells with addition of 100 ng/ml of soluble Pam2CSK4. Phosphorylated p38 was measured compared to negative controls by western blotting. n=2 independent experiments. Data depict m±s.d. B) Isolated T-cells were depoted with TLR2 ligand and MFI of activation markers, MHCII and CD69, on bystander B-cells were measured after 2-day culture by flow cytometry and normalized to unstimulated B-cells (fold MFI). n=5-6 independent experiments, one-way ANOVA with Kruskal-Wallis test. Data depict m±s.d. C) Splenocytes were cultured in 2 μg/ml of Concanavalin A and 10 ng/ml of IL-7 for 2 days, and isolated T-cells were then TLR2 ligand-depoted for 1 hour. Depoted T-cells were then resting for 0 h, 3 h, 24 h, or 48 h, before T-cells were chemically fixed and co-cultured for 2 days with CD45.1^+ bystander B-cells. Bystander B-cells were used as a reporter to determine TLR2 ligand surface persistence on depoted T-cells by their fold MFI of MHCII and CD69. n=5 independent experiments. Data depict m±s.d.
A) Pam2CSK4-biotin at indicated concentrations was depoted into CD3+CD8+ or CD3+CD8− T-cells and stained with streptavidin (SAV) PE as determined by flow cytometry. B) Paracrine signaling of resting vs Concanavalin A/IL-7-activated TLR2 ligand-depoted CD8+ T-cells. Activated CD8+ T-cells were isolated from splenocytes cultured in 2 μg/ml of Concanavalin A and 10 ng/ml of IL-7 for 2 days. TLR2 ligand was depoted and processed by CD8+ T-cells for 0 h, 3 h, 6 h, 24 h, or 48 h, before T-cells were chemically fixed and cultured for 2 days with bystander B-cells to determine fold MFI intensity of MHC II, CD69, and CD86 (C).
CD45.1+ B cells were depoted with lipo-CpG, CpG, or nothing. These were cultured alone or 1:1 mixed with bystander (no depot) CD45.1− B cells. B cell activation was shown as fold intensity CD86 measured by flow cytometry after 3 d. B) CD8+ T cells were depoted with Pam2CSK4 or nothing, and then co-cultured 1:1 with bystander CD45.1+ B cells for 3 d. B cell activation was measured by CD86 and compared to a continuous exposure Pam2CSK4 control. […]
After determining that depoting was a robust process, the function of depoted Pam2CSK4 to activate neighboring immune cells was tested. Depoted T cells were co-cultured with responders (B cells) and the expression of activation markers was determined after 2 days of co-culture at a 1:1 T cell:B cell ratio.
In FIG. 11, Pan T cells were isolated from mice and either left alone (blue, red) or depoted with Pam2CSK4 for 1 h (green). […] Expression levels of activation markers were analyzed by flow after 2 days and fluorescence intensity normalized to B cells activated with polyclonal stimulus. […]

A further assay concerns CD8+ T cells. In words: Proliferation of depoted T cells after 3 d stimulation with 1:1 anti-CD3/28 beads (CFSE dilution). In kind it is cell-based, murine. The conditions noted are these: 1:1 beads. The protocol: T-Cells were cultured with 5 μM of soluble lipo-CpG or depoted with lipo-CpG, and CFSE dilution was measured by flow cytometry. B) Quantification of division index of CD4^+ T-cells as measured by CFSE dilution from flow cytometry. n=3 independent experiments, one-way ANOVA with Krustal-Wallis test. *p<0.05 between the unstim condition.
CD45.1+ B cells were depoted with lipo-CpG, CpG, or nothing. These were cultured alone or 1:1 mixed with bystander (no depot) CD45.1− B cells. B cell activation was shown as fold intensity CD86 measured by flow cytometry after 3 d. B) CD8+ T cells were depoted with Pam2CSK4 or nothing, and then co-cultured 1:1 with bystander CD45.1+ B cells for 3 d. B cell activation was measured by CD86 and compared to a continuous exposure Pam2CSK4 control. C) Representative histograms showing CFSE dilution (proliferation) of CD8+ T cells after 3 d stimulation with 1:1 anti-CD3/28 beads. Where indicated, cells were depoted or cultured with continuous soluble lipo-CpG (left) or Pam2CSK4 (right). Bars=median, whiskers=range; n=3.
B cells depoted with lipo-CpG had sustained activation up to 3 d (FIG. 10 A). […] The ability of a surface sensed lipo-Av to activate neighboring cells was also tested, using Pam2CSK4 which engages surface TLR2.

For assay [1], the system named is CD8+ T cells with B16F10 tumor cells. In words: Proliferation of depoted CD8+ T cells with αCD3/28 beads in the presence of immunosuppressive tumor cells. The note with it: 3 days coculture with αCD3/28 beads. It counts as cell-based, murine. The protocol: A) Flow cytometry histograms showing CFSE dilution of CD8^+ T-cells after 3-day stimulation with ratios of 1:1 αCD3/CD28 beads and 1:5 B16F10 tumor cells (blue text). T-Cells were cultured with 10 μg/ml of soluble Pam2CSK4 or Pam3CSK4 either alone or in combination with 5 μM of soluble lipo-CpG (solid fill), or depoted with the same respective combinations (tinted fill). B) Quantification of percent of CD8^+ T-cells that divided >5 times compared to undivided CD8^+ T-cells as measured by CF SE dilution from flow cytometry. C) IL-2 production from CD8^+ T-cell supernatents after 3 days of proliferation. n=1 independent experiment.
The proliferative capacity of depoted CD8+ T cells was evaluated after 3 days of coculture with αCD3/28 beads in the presence or absence of immunosuppressive tumor cells.

Assay [2] deals with resting memory CD4+ T cells. The conditions noted are these: cited from earlier work.
In a further assay the test system is cognate CD8+ T-cells. In words: Antigen presentation by lipo-GP100-depoted B-cells to cognate CD8+ T-cells (T-cell proliferation, CFSE dilution). In kind it is cell-based, murine. The protocol:
A) Activated B-cells were isolated from splenocytes and cultured with 1 μg/ml TLR7 ligand R848 and αIgM antibody for 2 days. Resting versus activated B-cells were depoted with lipo-GP100-FAM for 1 hour. Lipo-GP100-FAM and forward scatter fold increase was measured by flow cytometry. B) LipoGP100-depoted resting B-cells presented to and proliferated cognate CD8^+ T-cells at 33 μM of 1 h depoted lipo-GP100 after 3-day culture as measured by CFSE dilution with flow cytometry. Indicated values are percent CD8^+ T-cells that divided at least once. C) BMDCs were cultured with 20 ng/ml of GM-CSF for 7 days before harvested and either depoted with 33 μM of lipo-GP100 or pulsed with 33 μM of short GP100 (KVPRNQDWL) (SEQ ID NO: 2) peptide, along with resting B-cells. These modified APCs were co-cultured with pmel-1 GP100-specific CD8^+ T-cells for 3 days to determine pmel-1 T-cell proliferation by flow cytometry. n=1 independent experiment.
Antigen processing in APC B-cells by A) endocytosis, B) direct binding affinity on APC surface, or C) depoting. 33 uM of indicated GP100 antigen is conferred to APC B-cells for 1 h, then processed by B-cells in aforementioned antigen processing mechanisms for 0 h, 3 h, or 16 h, before B-cells are chemically fixed and cultured with cognate CD8^+ T-cells for 3 days to determine T-cell proliferation. n=1 independent experiment.
An diacyl (C18) lipid-conjugated ligands (lipo-ligands) was engineered that can be depoted into cell membranes in a time- and concentration-dependent fashion for precise and robust delivery up to 241.5±9.6 (mean±SD) fold increase compared to nondepoted cells. […] B) Representative histograms of fluorescein-labeled (FAM-labeled) lipo-GP100 fluorescence on B-cell surface as functions of depot time and lipo-GP100 concentration measured by flow cytometry. Median fluorescence intensity (MFI) of lipo-GP100 FAM fold increase on B-cells from non-depoted B-cells by flow cytometry. […]

Here are results for three substances from US20190046649A1, “DELIVERY DEVICE AND USE THEREOF FOR LOADING CELL PLASMA MEMBRANES” (UNIVERSITY OF MARYLAND, BALTIMORE COUNTY, priority 2017, published 2019).

No end group written: not given here.

Take Pam2CSK4: in the assay on T-cells, the “insertion into cell membranes” value is reported as “can be rapidly inserted into cell membranes”. Moreover, the “intracellular localisation by microscopy” value in the assay on T-cells (24 h post-depoting) was “colocalizing with early endosome antigen 1 (EEA1)”. Moreover, the “B cell activation by depoted CD8+ T cells relative to continuous exposure control” value in the assay with bystander B cells (TLR2) (1:1 co-culture 3 d, CD86) is “nearly matching continuously exposed control”. In the assay with bystander B cells (TLR2) (1:1 co-culture, CD86), the “duration of trans signaling and activation of B cells by depoted CD8+ T cells” value is reported as 3 days. In addition, the “activation of neighboring responder B cells by depoted T cells relative to soluble ligand” value in the assay on bystander B cells (TLR2) (2 days co-culture, 1:1 T cell:B cell ratio, depoted 1 h) is “nearly equivalent to high doses of Pam2CSK4 in solution”. For the same substance, the “persistence of bystander-activating activity of depoted T cells” value in the assay on bystander B cells (TLR2) (data not shown) is on record as “persists for multiple days”. Further, the “effect of depoting on CD8+ T cell proliferation in response to αCD3/28 beads” value in the assay on CD8+ T cells is “did not”. In addition, the “proliferative capacity of depoted T cells in the presence of tumor cells” value in assay [1] is “recovered proliferative capacity in the presence of tumor cells”.
With Pam3CSK4, in the assay with T-cells, the “insertion into cell membranes” value is recorded as “can be rapidly inserted into cell membranes”. Moreover, the “HIV latency reactivation ("shock") activity” value in assay [2] was “effective “shock” agent”. In assay [1], the “proliferative capacity of depoted T cells in the presence of tumor cells” value is reported as “recovered proliferative capacity in the presence of tumor cells”.
“lipo-GP100: diacyl 18-carbon tails conjugated to a PEG linker plus melanoma antigen GP10025-33 (KVPRNQDWL) (SEQ ID NO: 2) (also: diacyl C18 lipid tails via PEG linker, site not given here)”: the “manner of antigen presentation by APC B-cells to cognate CD8+ T-cells” value with cognate CD8+ T-cells (33 uM antigen 1 h, processed 0 h, 3 h or 16 h, fixed, 3-day culture) was “delayed and prolonged manner”. Besides, the “B-cells as APCs versus BMDCs presenting antigen, MHCI-restricted” value with cognate CD8+ T-cells (33 μM depoted, 3-day co-culture with pmel-1 CD8+ T-cells) is recorded as “comparable to bone marrow derived cells (BMDCs)”. The “duration of antigen presentation from B-cells to cognate CD8+ T-cells” value with cognate CD8+ T-cells (GP100 25-33 antigen delivered by depoting) was over 16 h.
